Like-named read-outs stand apart in the source and are kept apart here.
Tests used:
[1] = system: acyclovir-susceptible reference strain SC16; test: Antiviral susceptibility testing by ELISA on HEp-2 cells, strain SC16; assay type: cell-based, HSV 1
Description: (§1) Three HSV 1 reference strains were tested : SC16 (acyclovir-susceptible reference strain; (Hill et al., 1975)), DM21 (acyclovir-resistant reference strain derived from SC16; (Efstathiou et al., 1989)) and TP 2.5 (foscarnet-resistant reference strain derived from SC16; (Larder and Darby, 1985)). Antiviral assays were performed in duplicate on HEp-2 cells seeded in 96 wells microplates. Dilutions of virus and drugs were prepared in E-MEM without FCS. Cells were first treated for 24 hours with MGBG using a series of 6 twofold serial dilutions from 12.5 to 400 μM. Infection was then achieved with 5 tenfold dilutions of cell-associated virus (10^−1 to 10^−5). Each dilution was incubated with a series of 6 concentrations of each antiviral drug (from 12.5 to 400 μM in twofold dilutions for MGBG, from 0.16 to 500 μM in fivefold dilutions for acyclovir and from 31 to 1000 μM in twofold dilutions for foscarnet). […] After incubation at 36° C. with 5% CO2 for 24 hours post-infection, medium was replaced with freshly prepared dilutions of MGBG. Viral multiplication was checked 24 hours afterwards by an ELISA (Morfin et al., 1999), using a rabbit monoclonal anti-HSV 1 antibody (BO 114, Dako) and a protein A peroxidase-conjugated (BioRad). The substrate, 2,2′-azino-di(3-ethyl-benzthiazoline) sulfonic acid (ABTS) diluted in ABTS buffer (Boehringer, Mannheim), was added to each well. After 30 min at room temperature, the plates were briefly agitated and optical densities were read at 405 nm with a multichannel spectrophotomoter (Titertek-Multiskan). Optical density values were used with the Biolise program (Life Sciences International) to calculate the concentration of the drug causing a 50% inhibition of viral replication (IC50) by logistic regression analysis.
(§2) The capacity of MGBG to preclude infection of three HSV-1 acyclovir and/or foscarnet resistant strains was tested. […] The ED values were determined.

[2] = system: acyclovir-resistant reference strain DM21; test: Antiviral susceptibility testing by ELISA on HEp-2 cells, strain DM21; assay type: cell-based, HSV 1; conditions: for IC50: HEp-2 cells, ELISA, median of at least three assays, drugs diluted in μM, read-out: Susceptibility of strain DM21 (concentration causing 50% inhibition of viral replication, IC50), median
Description: as §1
The capacity of MGBG to preclude infection of three HSV-1 acyclovir and/or foscarnet resistant strains was tested. The reference strains used in this study were the SC16 acyclovir-susceptible reference strain, the DM21 acyclovir-resistant reference strain derived from SC16 and the TP 2.5 foscarnet-resistant reference strain derived from SC16 (Efstathiou et al., 1989; Hill et al., 1975; Larder and Darby, 1985). In each experiment, dose response curves were constructed for […], for acyclovir, and for MGBG. The ED values were determined.

[3] = system: foscarnet-resistant reference strain TP 2.5; test: Antiviral susceptibility testing by ELISA on HEp-2 cells, strain TP 2.5; assay type: cell-based, HSV 1; conditions: median of at least three assays, drugs diluted in μM, read-out: Susceptibility of strain TP2.5 (concentration causing 50% inhibition of viral replication, IC50), median
Description: as §1, §2

SAMDC = molecular target: T1, SAMDC (Rattus norvegicus, UniProt P17708); test: SAMDC inhibition in vitro; assay type: biochemical; conditions: inhibitor at 0.1 μM
T1 construct: according to the procedure described in Pegg A E, Poso H, S-adenosylmethionine decarboxylase (rat liver), Methods Enzymol; 1983;94: 234-239; from tissue
T1 sequence (P17708 68-333 limits assumed): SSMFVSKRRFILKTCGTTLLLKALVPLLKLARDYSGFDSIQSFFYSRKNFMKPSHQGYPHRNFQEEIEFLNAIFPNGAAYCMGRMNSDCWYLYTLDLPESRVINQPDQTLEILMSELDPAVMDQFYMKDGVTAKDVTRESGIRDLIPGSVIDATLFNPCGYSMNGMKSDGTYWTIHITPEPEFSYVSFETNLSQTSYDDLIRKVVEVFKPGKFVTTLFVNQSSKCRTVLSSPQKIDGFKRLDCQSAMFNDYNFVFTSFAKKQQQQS
T1 sequence (P17708 1-67 limits assumed): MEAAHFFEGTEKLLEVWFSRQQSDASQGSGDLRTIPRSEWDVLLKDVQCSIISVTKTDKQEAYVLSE
Source text: The results of SAMDC inhibition in vitro and of HSV replications in cellulo for MGBG and Compounds (I) to (III) disclosed above are reported in the table below.

HSV = HSV replication in cellulo; assay type: cell-based; conditions: read-out: HSV inhibition in cellulo IC50
Description: as §1

[4] = system: HSV-1 macroplaque strain (MP); assay type: cell-based; conditions: 50 μM spermine added with 100 μM MGBG and virus, or 2 h later
Description: HEp2 cells were grown as monolayers in Eagle's minimum essential medium (E-MEM) supplemented or not with 5% heat-inactivated foetal calf serum (FCS) and supplemented with 100 U/ml penicillin and 100 U/ml streptomycin. The cells were maintained at 37° C. under 5% CO2. The HSV-1 macroplaque strain (MP), obtained from B. Jacquemont (Lyon, France), was a gift of B. Roizman (Chicago, Ill., U.S.A.), and was used throughout this study. Viruses were grown in HEp2 cells.
HEp2 cells were grown in 6-well plates (˜10^6 cells/well) and infected just before confluence with a multiplicity of infection (m.o.i.) of 0.5 plaque-forming units (PFU) per cell in E-MEM in absence of FCS, except for some experiments. After adsorption of the virus for 1 h at 33° C. under 5% CO2, the medium containing the virus suspension was removed and the cells were washed with E-MEM, then incubated in E-MEM without FCS at 37° C. for different periods of times until harvest. Times post-infection (p.i.) were calculated from the time of addition of the virus suspension. HEp2 cells were exposed to MGBG treatment for different times. When cells were pre-treated with MGBG prior infection, MGBG was added to cell medium 6 h or 24 h prior infection until harvest. In non pre-treated cells, MGBG was added simultaneously with virus suspension, or 2 h, 4 h or 6 h latter. When cells were treated for more than 24 h, medium was replaced every 24 h with fresh medium containing the same concentration of MGBG.
Accordingly, the effect of inactivation of enzymes involved in polyamine biosynthesis upon HSV-1 infection inhibition was assessed. The HSV-1 MP strain was used throughout this study for its ability to induce the formation of large syncytia from infected cells. Therefore, it was possible to easily and quickly investigate the inhibition of viral replication at the level of syncytia formation.
To investigate the effect of the concentration of MGBG on viral infection, HEp2 cells were infected with 0.5 PFU of HSV-1 per cell in FCS free medium in which 10 μM to 300 μM MGBG was added from the adsorption step of the virus until the end of the experiment. After 24 h of infection, the formation of syncytia was observed, and the number of syncytia was estimated by counting using the optical microscope.
HEp2 cell were pre-treated with MGBG by incubation in FCS free medium containing 10 to 300 μM MGBG 6h to 24 h before infection. Then cells were infected as described above and MGBG was maintained in the medium until the end of the experiment.

[5] = system: HSV-1 proteins, mRNA and DNA; test: Levels of viral proteins (Western blot), mRNA and DNA (slot blot) in infected HEp2 cells; assay type: cell-based; conditions: 6 h pre-treatment with 100 μM MGBG, then MGBG and 50 μM spermine, 24 h p.i.
Description: Total RNA and DNA from control mock-infected and infected HEp2 cells were purified using Qiagen RNA/DNA kit. RNA were submitted to DNAse/RNAse free digestion (1.5 unit/μg RNA) and DNA were submitted to RNAse A digestion (10 units/μg). Quantitation of SAMDC mRNA, of viral mRNAs and viral DNA present in each sample was determined by slot blot analysis using the 1250 bp PstI/PvuII fragment of pSAMr1 plasmid (Pajunen et al., 1988). The 746 bp SalI-EcoNI fragment of pSG28 and the 1308 bp MluI fragment of pSG124 plasmids (Goldin et al., 1981) were labelled with [^32P] and used as probes to detect the immediate early ICP27 and the early UL42 mRNAs respectively. Us11 late mRNA was detected with [^32P]-labelled probe composed of the 230 bp XhoI fragment of pHSV-Us12 plasmid (Diaz et al., 1996). Viral DNA was detected using the ICP27 specific DNA probe.
Mock-infected and HSV-1-infected HEp2 cells were washed three times with ice cold phosphate-buffered saline (PBS) (130 mM NaCl, 4 mM Na2HPO4.2H2O, 1.5 mM KH2PO4), scrapped into PBS, and collected by centrifugation at 500×g. Cells were resuspended in Laemmli buffer (Laemmli, 1970). Proteins were resolved by polyacrylamide gel electrophoresis and transferred by electroblotting onto a polyvinylidene difluoride membrane (Immobilon-P; Millipore). Viral proteins were analysed by Western blots (10 μg aliquots) using a 50 fold dilution of either a rabbit polyclonal anti-ICP27 antibody, or a rabbit polyclonal anti-Us11 antibody (Diaz et al., 1993), or a mouse monoclonal anti-UL42 antibody diluted 50 fold.
Cells were pre-treated with 10 to 200 μM of MGBG, then infected with HSV-1 in the presence of the same concentrations of MGBG. Proteins, RNA and DNA were extracted from cells infected for 24 h. Viral proteins were detected by Western blot using specific antibodies, whereas viral mRNA and DNA levels were assayed by slot blot analysis.

Structure (SMILES) | IC50 [2] [µM] | IC50 [3] [µM] | % inhibition in vitro (0.1 μM) (SAMDC) [%] | IC50 (HSV) [µM] | further results
Nc1nc2c(ncn2COCCO)c(=O)[nH]1 [Acyclovir, acyclovir] | > 500 | 215 |  |  | IC50 ([1]; HEp-2 cells, ELISA, median of at least three assays, drugs diluted in μM, read-out: Susceptibility of strain SC16 (concentration causing 50% inhibition of viral replication, IC50), median): 28 µM
N=C(N)c1ccc(/N=N/Nc2ccc(C(=N)N)cc2)cc1 [Compound (I), Berenil] |  |  | 47 | 70 | 
N=C(N)c1cccc2c1CC/C2=N\N=C(N)N [Compound (II), SAM486A] |  |  | 97 | 47 | 
CC(NNC(=N)N)c1cccc(C(=N)N)n1 (centres unmarked) [Compound (III)] |  |  |  |  | inhibition at 0.1 µM (SAMDC): 97%
O=C(O)P(=O)(O)O [Foscarnet, foscarnet] | 148 | > 1000 |  |  | IC50 ([1]; HEp-2, read-out: Susceptibility of strain SC16 (concentration causing 50% inhibition of viral replication, IC50), median): 224 µM; decreased IC50 on acyclovir-resistant strains versus acyclovir-susceptible strain ([2]; compared with SC16): 34%
NCCCNCCCCNCCCN [spermine] |  |  |  |  | MGBG inhibition of viral infection on addition of exogenous spermine [4]: totally prevented; MGBG-induced viral inhibition in the presence of exogenous spermine [5]: abolished the MGBG-induced viral inhibition

Source: patent publication US20070059299A1, “S-adenosyl methionine decarboxylase inhibition for the treatment of a herpes simplex virus infection” (Institut National de la Sante et de la Recherche Medicale …, priority 2002, published 2007)
